Results: article PMC7406636, “In vivo and in silico characterization of apocynin in reducing organ oxidative stress: A pharmacokinetic and pharmacodynamic study” (Pharmacology Research & Perspectives, 2020)

Assay: Time-dependent distribution of apocynin in plasma, urine and tissues after iv bolus injection (HPLC-MS/MS)
Type: in vivo, mouse
Conditions: plasma, brain and liver samples after iv bolus injection of apocynin, HPLC-MS/MS
Procedure: All studies were performed in accordance with the protocols approved by the Home Office under the Animals (Scientific Procedures) Act 1986, UK. For the PKPD study, male CD1 mice (Charles River Ltd) at 12 weeks of age with a body weight range between 25 and 30 g were used for the study. Mice were fasted 12 hours before bolus iv injection of apocynin at 5 mg/kg body weight (dosing volume 5 mL/kg) via a lateral tail vein. Control mice were injected with vehicle (solvent of apocynin) at each time points. Four mice/per time points were sacrificed at 0, 1, 2.5, 5, 15, 30, 60 minutes and then at 3, 6, 12, and 24 hours after iv injection of apocynin. Blood samples were collected and centrifuged at 2000 g, 4°C for 10 minutes for plasma collection. Urine samples were collected from bladders. Tissues were harvested for further experiments.
The detection of apocynin in tissue sample was performed as described previously with some modifications. ^17 In brief, apocynin was detected using an Accela HPLC coupled to a linear ion‐trap tandem mass spectrometry (LTQ‐Orbitrap XL; Thermo‐Fisher Scientific) (HPLC‐MS/MS) in the negative ion mode. Phenacetin (500 ng/mL) was used as an internal standard in every vial. A reversed‐phase 50 × 2.1 mm ID, […], 175 Å pore C18 Hypersil Gold column (Thermo Scientific) was used with injection volume set at 5 µL for the separation of apocynin and phenacetin. Calibration curve used for PK analysis was constructed by spiking apocynin in mouse plasma using eight calibrators ranging from 1 to 10000 ng/mL with great reproducibility and R ^2 ≥ 0.996 for subsequent 5 separate experiments on different days. […] Limit of detection for apocynin was set up at signal to noise ratio ≥ 3, ^18 which is 1 ng/mL in our system. The limitation of quantification was set up at signal to noise ratio ≥ 10, which is 10 ng/mL in our system. Orbitrap component was used for the full scan spectra of apocynin and diapocynin.

COc1cc(C(C)=O)cc(-c2cc(C(C)=O)cc(OC)c2O)c1O [Diapocynin]
diapocynin detection as metabolite in samples: not detected
